Data as given in US8329656B2, “Use of a PDE5 inhibitor for treating and preventing hypopigmentary disorders” (Switch Biotech AG, priority 2004, dated 2012).
Entries after “also recorded” stand apart in the source; their conditions may differ.

Test system: human melanoma cell line (Mel-Ho)
Assay: Melanocyte dendrite outgrowth assay
Assay type: cell-based
Settings: Mel-Ho cells; for induction of melanocyte dendricity (in words): different concentrations, 24 hours
Excerpt: A possibility to test the effect of a compound on melanocyte function as a measure for pigmentation, the melanocyte dendrite outgrowth assay can be performed. Vitiligo melanocytes for example have only stubby dendrites. Increasing dendricity as a prerequisite for the transfer of the melanosomes from melanocytes to the surrounding keratinocytes rescues this defect. For this assay, cells from a human melanoma cell line (Mel-Ho) were obtained from DSMZ (Deutsche Sammlung für Mikroorganismen and Zellkulturen) and were cultured according to the protocol provided by DSMZ. In short, after thawing the melanocytes were cultured in T-75 flasks in melanocyte culture media (provided by the manufacturer) until they reach 70-80% confluency. The melanocytes were then trypsinized, transferred into 5-10 new T-75 flasks, and grown again to same confluency as described above. After this expansion step the melanocytes were immediately used for the Melanocyte Dendrite Outgrowth Assay or were frozen for later use. For the assay, the melanocytes were seeded in 24 well plates at a density of 1-5×10^4 cells/well. After 24 hours, the melanocytes were treated with 100 μM IBMX (Sigma-Aldrich) or different concentrations of Sildenafil and Tadalafil for 24 hours. IBMX (=3-isobutyl-1-methylxanthin) is known to cause increased melanocyte dendricity and was used as a positive control. Cells treated with media only were used as a negative control. Melanocyte dendrite outgrowth was documented by digital photography (Canon G2 Powershot) after 3, 6 and 24 hours. In addition, melanocyte dendricity was scored by 3 blinded individuals after 24 hours. The score ranges from 1 to 4; 1 representing melanocytes with no dendrites and 4 representing melanocytes with many long and branched dendrites. […] 10 μM Sildenafil was used to obtain an score of >3, however also lower concentrations (down to 10 nM) of Sildenafil was sufficient to induce dendrite formation. The experiment was performed as described in Example 1, however using Tadalafil as active component.

| SMILES | induction of melanocyte dendricity (in words) | concentration sufficient to induce dendrite formation (lower concentrations than 10 μM) [nM] |
| --- | --- | --- |
| CCCc1nn(C)c2c(=O)[nH]c(-c3cc(S(=O)(=O)N4CCN(C)CC4)ccc3OCC)nc12 [Sildenafil, 5-[2-Ethoxy-5-(4-methyl-1-piperazinylsulfonyl)phenyl]-1-methyl-3-n-propyl-1,6-dihydro-7H-pyrazolo[4,3-d]pyrimidin-7-one] | strongly increased dendricity | ≥ 10 |
| CN1CC(=O)N2C(Cc3c([nH]c4ccccc34)[C@H]2c2ccc3c(c2)OCO3)C1=O (stereo partly drawn) [Tadalafil, (6R,12aR)-2,3,6,7,12,12a-hexahydro-2-methyl-6-(3,4-methylenedioxyphenyl)pyrazino[1′,2′:1,6]pyrido[3,4-b]indole-1,4-dione] | very similar to the results obtained with Sildenafil; also recorded: effectively induces dendricity; also recorded: strongly increased dendricity |  |
